ChEMBL document CHEMBL5104100, “Synthesis and Preclinical Characterization of LY3154885, a Human Dopamine D1 Receptor Positive Allosteric Modulator with an Improved Nonclinical Drug-Drug Interaction Risk Profile” (J Med Chem, 2022)
≈ marks a conversion by molar mass, not a printed value.

Experiments:
CYP3A4 [1] = target: T1, CYP3A4 (Homo sapiens, UniProt P08684); experiment: Induction of CYP3A4 in human hepatocytes assessed as maximum efficacy relative to control
Cytochrome P450 = experiment: Drug metabolism in human hepatocytes assessed as fraction of Cyp mediated oxidative metabolism in presence of NADPH; assay type: ADME, cell-based, Hepatocyte
CYP3A4 [2] = target: T1, CYP3A4; experiment: Induction of CYP3A4 in human hepatocytes; assay type: ADME, cell-based, Hepatocyte
D(1A) dopamine receptor = D(1A) dopamine receptor (Homo sapiens, UniProt P21728); experiment: Positive allosteric modulation of human D1 receptor in HEK293 cells assessed as increase in cyclic AMP production measured after 60 mins in presence of dopamine by HTRF assay; assay type: cell-based
Chain of D(1A) dopamine receptor (P21728 whole entry): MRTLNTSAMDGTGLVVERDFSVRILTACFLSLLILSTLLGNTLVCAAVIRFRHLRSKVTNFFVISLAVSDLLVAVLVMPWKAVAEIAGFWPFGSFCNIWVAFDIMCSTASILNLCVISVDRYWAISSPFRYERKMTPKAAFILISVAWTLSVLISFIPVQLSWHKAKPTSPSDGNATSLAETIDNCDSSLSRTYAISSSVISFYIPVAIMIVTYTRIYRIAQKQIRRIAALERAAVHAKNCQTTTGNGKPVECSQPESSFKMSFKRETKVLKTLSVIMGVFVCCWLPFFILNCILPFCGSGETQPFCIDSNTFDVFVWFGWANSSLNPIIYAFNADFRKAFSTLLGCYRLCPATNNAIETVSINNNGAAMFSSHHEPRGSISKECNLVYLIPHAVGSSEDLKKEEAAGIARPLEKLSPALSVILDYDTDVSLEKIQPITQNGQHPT

[3] = Solubility of compound at pH 6 by HTSA assay; assay type: physicochemical; details: buffer

T1 sequence (P08684 whole entry): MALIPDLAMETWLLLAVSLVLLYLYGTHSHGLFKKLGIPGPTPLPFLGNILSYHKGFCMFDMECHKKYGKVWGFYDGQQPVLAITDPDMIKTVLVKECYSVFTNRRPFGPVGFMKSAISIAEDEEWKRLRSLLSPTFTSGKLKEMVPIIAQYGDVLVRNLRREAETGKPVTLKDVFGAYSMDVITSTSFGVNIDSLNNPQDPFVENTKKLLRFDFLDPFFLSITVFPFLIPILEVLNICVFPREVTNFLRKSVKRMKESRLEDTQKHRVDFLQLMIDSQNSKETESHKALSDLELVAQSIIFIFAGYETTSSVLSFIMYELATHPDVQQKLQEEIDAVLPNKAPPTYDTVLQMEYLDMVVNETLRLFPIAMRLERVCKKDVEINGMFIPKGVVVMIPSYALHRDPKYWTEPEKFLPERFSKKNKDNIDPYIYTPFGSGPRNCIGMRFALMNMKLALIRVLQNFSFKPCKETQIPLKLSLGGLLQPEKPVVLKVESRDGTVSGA

| Compound | Emax (CYP3A4 [1]) | Fm (Cytochrome P450) | EC50 (CYP3A4 [2]) | EC50 (D(1A) dopamine receptor) | solubility [3] |
| --- | --- | --- | --- | --- | --- |
| C[C@H]1c2cccc(CCC(C)(C)O)c2C[C@H](CO)N1C(=O)Cc1c(Cl)cccc1Cl | 42% | 0.6 | 5500 nM |  |  |
| C[C@H]1c2cccc(-c3cn[nH]c3)c2C[C@H](CO)N1C(=O)Cc1c(Cl)cccc1Cl |  |  |  | 6.41 nM | 27 µg/mL (≈ 62.7 µM) |
| CCn1cc(-c2cccc3c2C[C@H](CO)N(C(=O)Cc2c(Cl)cccc2Cl)[C@H]3C)cn1 |  |  |  | 15.9 nM | 12 µg/mL (≈ 26.2 µM) |

Continued, values first:

| Emax (CYP3A4 [1]) | Fm (Cytochrome P450) | EC50 (CYP3A4 [2]) | EC50 (D(1A) dopamine receptor) | solubility [3] | Compound |
| --- | --- | --- | --- | --- | --- |
|  |  |  | 10.3 nM | 2 µg/mL (≈ 4.25 µM) | C[C@H]1c2cccc(-c3cnn(C4CC4)c3)c2C[C@H](CO)N1C(=O)Cc1c(Cl)cccc1Cl |
|  |  |  |  | 35 µg/mL (≈ 72 µM) | C[C@H]1c2cccc(-c3cnn(C4COC4)c3)c2C[C@H](CO)N1C(=O)Cc1c(Cl)cccc1Cl |
